Reference: US20050239656A1, “Pyridine compounds or salts thereof and herbicides containing the same” (priority 2002, published 2005)

Key:
barnyardgrass [1] = test: Test Example 1: foliage treatment, upland pot test; format: in vivo, Echinochloa crus-galli L.; conditions: active ingredient 500 g/ha, observed 18th to 23rd day, 0 = non-treated, 100 = complete kill
In short: (§1)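 Foliage tx, upland soil pots; stages: wheat 1.3-2.4 L, rice 1.2-2.6 L, soybean 0.1-0.4 L, barnyardgrass 1.3-2.8 L. WP/EC diluted, 500 L/ha water + 0.1% (v/v) agricultural spreader, small sprayer. Visual rating d18–23, 0–100% control.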

crabgrass [2] = test: Test Example 1: foliage treatment, upland pot test; format: in vivo, Digitaria sanguinalis L.; conditions: active ingredient 500 g/ha, observed 18th to 23rd day, 0 = non-treated, 100 = complete kill
green foxtail [3] = test: Test Example 1: foliage treatment, upland pot test; format: in vivo, Setaria viridis L.; conditions: active ingredient 500 g/ha, observed 18th to 23rd day, 0 = non-treated, 100 = complete kill
redroot pigweed [4] = test: Test Example 1: foliage treatment, upland pot test; format: in vivo, Amaranthus retroflexus L.; conditions: active ingredient 500 g/ha, observed 18th to 23rd day, 0 = non-treated, 100 = complete kill
prickly sida [5] = test: Test Example 1: foliage treatment, upland pot test; format: in vivo, Sida spinosa L.; conditions: active ingredient 500 g/ha, observed 18th to 23rd day, 0 = non-treated, 100 = complete kill
velvetleaf [6] = test: Test Example 1: foliage treatment, upland pot test; format: in vivo, Abutilon theophrasti MEDIC.; conditions: active ingredient 500 g/ha, observed 18th to 23rd day, 0 = non-treated, 100 = complete kill
rice [7] = test: Test Example 1: foliage treatment, upland pot test; format: in vivo, Oryza sativa L.; conditions: crop, active ingredient 500 g/ha, observed 18th to 23rd day, 0 = non-treated, 100 = complete kill
In short: as §1

corn [8] = test: Test Example 1: foliage treatment, upland pot test; format: in vivo, Zea mays L.; conditions: crop, active ingredient 500 g/ha, observed 18th to 23rd day, 0 = non-treated, 100 = complete kill
In short: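 Corn seeds were sown in upland field soil held in a 1/170,000 ha pot and grown to the 2.1 to 3.2 leaf stage. A wettable powder or emulsifiable concentrate of the test compound was diluted with water at 500 L/ha, given 0.1% (v/v) agricultural spreader, and sprayed onto the foliage with a small sprayer. Growth controlling degree (%) was scored visually 18th to 23rd days later, from 0 (non-treated) to 100 (complete kill).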

soybean [9] = test: Test Example 1: foliage treatment, upland pot test; format: in vivo, Glycine max Merr.; conditions: crop, active ingredient 500 g/ha, observed 18th to 23rd day, 0 = non-treated, 100 = complete kill
In short: as §1

barnyardgrass [10] = test: Test Example 2: soil surface treatment, upland pot test; format: in vivo, Echinochloa crus-galli L.; conditions: active ingredient 500 g/ha
In short: (§2)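 A pre-emergence soil application: formulated compound at a predetermined active-ingredient dose, diluted in water to 1,500 L/ha, sprayed on upland soil a day after seeding in 1/170,000 ha pots; growth control rated visually, 0 (untreated level) to 100 (kill), at 20–28 days.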

crabgrass [11] = test: as above; format: in vivo, Digitaria sanguinalis L.; conditions: active ingredient 500 g/ha
In short: as §2

green foxtail [12] = test: as above; format: in vivo, Setaria viridis L.; conditions: active ingredient 500 g/ha
In short: as §2

redroot pigweed [13] = test: as above; format: in vivo, Amaranthus retroflexus L.; conditions: active ingredient 500 g/ha
In short: as §2

prickly sida [14] = test: as above; format: in vivo, Sida spinosa L.; conditions: active ingredient 500 g/ha
In short: as §2

velvetleaf [15] = test: as above; format: in vivo, Abutilon theophrasti MEDIC.; conditions: active ingredient 500 g/ha
In short: as §2

rice [16] = test: as above; format: in vivo, Oryza sativa L.; conditions: active ingredient 500 g/ha
In short: as §2

corn [17] = test: as above; format: in vivo, Zea mays L.; conditions: active ingredient 500 g/ha
In short: as §2

soybean [18] = test: as above; format: in vivo, Glycine max Merr.; conditions: active ingredient 500 g/ha
In short: as §2

barnyardgrass [19] = test: Test Example 3: paddy pot test, application under submerged conditions; format: in vivo, Echinochloa crus-galli L.; conditions: submerged application at 0.5 leaf stage, visually observed 14 days after application, 0 = non-treated, 100 = complete kill
In short: (§3)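 Paddy soil pots; seeds sown, lightly covered; flooded 0.5–1 cm in greenhouse; wapato tubers planted day 1–2; flood raised to 3–4 cm. Submerged pipette application at 0.5 leaf / primary leaf stage. Visual score day 14, 0–100%.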

japanese bulrush = test: as above; format: in vivo, Scirpus juncoides; conditions: submerged application at 0.5 leaf stage, visually observed 14 days after application, 0 = non-treated, 100 = complete kill
In short: as §3

japanese ribbon wapato = test: as above; format: in vivo, Sagittaria pygniaea; conditions: submerged application at primary leaf stage, visually observed 14 days after application, 0 = non-treated, 100 = complete kill
In short: as §3

rice (var. Nihonbare) = test: Test Example 3: paddy pot test, transplanted rice; format: in vivo, Oryza sativa L.; conditions: applied 4th day after transplantation, visually observed 21st day after application, 0 = non-treated, 100 = complete kill
In short: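 Visual crop-injury rating (0 = as untreated, 100 = complete kill, %) taken 21 days post-application. Treatment: formulated compound, water-diluted, pipetted into 3–4 cm flood water at a preset active-ingredient dose, 4 days after transplanting 2-leaf Nihonbare rice 3 cm deep in puddled paddy soil.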

[20] = observed day 21, 0 = non-treated, 100 = complete kill

| Compound | Growth controlling degree (%) Barnyardgrass (barnyardgrass [1]) | Growth controlling degree (%) Crabgrass (crabgrass [2]) | Growth controlling degree (%) Green foxtail (green foxtail [3]) | Growth controlling degree (%) Redroot pigweed (redroot pigweed [4]) | Growth controlling degree (%) Prickly sida (prickly sida [5]) | Growth controlling degree (%) Velvetleaf (velvetleaf [6]) | Growth controlling degree (%) Rice (rice [7]) | Growth controlling degree (%) Corn (corn [8]) | Growth controlling degree (%) Soybean (soybean [9]) | Growth controlling degree (%) Barnyardgrass (barnyardgrass [10]; observed 20th to 28th day) | Growth controlling degree (%) Crabgrass (crabgrass [11]; observed 20th to 28th day) | Growth controlling degree (%) Green foxtail (green foxtail [12]; observed 20th to 28th day) | Growth controlling degree (%) Redroot pigweed (redroot pigweed [13]; observed 20th to 28th day) | Growth controlling degree (%) Prickly sida (prickly sida [14]; observed 20th to 28th day) | Growth controlling degree (%) Velvetleaf (velvetleaf [15]; observed 20th to 28th day) | Growth controlling degree (%) Rice (rice [16]; observed 20th to 28th day) | Growth controlling degree (%) Corn (corn [17]; observed 20th to 28th day) | Growth controlling degree (%) Soyabean (soybean [18]; observed 20th to 28th day) | Growth controlling degree (%) Barnyardgrass (barnyardgrass [19]; active ingredient 250 g/ha) | Growth controlling degree (%) Japanese bulrush (japanese bulrush; active ingredient 250 g/ha) | other results |
| --- | --- | --- | --- | --- | --- | --- | --- | --- | --- | --- | --- | --- | --- | --- | --- | --- | --- | --- | --- | --- | --- |
| CCC(=O)N(C)C(c1cnccc1C(F)(F)F)C(C)C (stereo not drawn) [I-163] | 90% | 98% | 90% | 80% | 80% | 70% | 80% | 90% | 80% | 100% | 100% | 100% | 70% | 95% | 90% | 50% | 60% | 40% | 100% | 99% | Growth controlling degree (%) Japanese ribbon wapato (japanese ribbon wapato; active ingredient 250 g/ha): 90%; Growth controlling degree (%) Rice (rice (var. Nihonbare); active ingredient 250 g/ha): 60% |
| CC(C)C(c1cnccc1C(F)(F)F)N(C)C(=O)Cc1ccc(F)c(C(F)(F)F)c1 (stereo not drawn) [I-61] | 30% | 80% | 90% | 70% | 80% | 80% | 30% | 30% | 70% | 20% | 80% | 70% | 70% | 98% | 60% | 10% | 10% | 20% | 95% | 0% | Growth controlling degree (%) Japanese ribbon wapato (japanese ribbon wapato; active ingredient 250 g/ha): 20%; Growth controlling degree (%) Rice (rice (var. Nihonbare); active ingredient 250 g/ha): 10% |
| CC(C)C(c1cnccc1C(F)(F)F)N(C)C(=O)Cc1cccc(C(F)(F)F)c1F (stereo not drawn) [I-29] | 60% | 90% | 60% | 80% | 80% | 80% | 10% | 10% | 50% | 100% | 99% | 100% | 70% | 98% | 70% | 30% | 20% | 10% | 100% | 70% | Growth controlling degree (%) Japanese ribbon wapato (japanese ribbon wapato; active ingredient 250 g/ha): 10%; Growth controlling degree (%) Rice (rice (var. Nihonbare); active ingredient 250 g/ha): 10% |
| CCC(CC)C(c1cnccc1C(F)(F)F)N(C)C(=O)Cc1ccccc1 (stereo not drawn) [I-262] | 80% | 80% | 70% | 70% | 95% | 90% | 35% | 60% | 80% |  |  |  |  |  |  |  |  |  | 98% | 95% | Growth controlling degree (%) Barnyardgrass (barnyardgrass [10]; [20]): 20%; Growth controlling degree (%) Crabgrass (crabgrass [11]; [20]): 100%; Growth controlling degree (%) Green foxtail (green foxtail [12]; [20]): 95%; Growth controlling degree (%) Redroot pigweed (redroot pigweed [13]; [20]): 70%; Growth controlling degree (%) Prickly sida (prickly sida [14]; [20]): 90%; Growth controlling degree (%) Velvetleaf (velvetleaf [15]; [20]): 60%; Growth controlling degree (%) Rice (rice [16]; [20]): 50%; Growth controlling degree (%) Corn (corn [17]; [20]): 40%; Growth controlling degree (%) Soyabean (soybean [18]; [20]): 20%; Growth controlling degree (%) Japanese ribbon wapato (japanese ribbon wapato; active ingredient 250 g/ha): 30%; Growth controlling degree (%) Rice (rice (var. Nihonbare); active ingredient 250 g/ha): 0% |
| CC(C)C(c1cnccc1Cl)N(C)C(=O)Cc1c(F)cccc1F (stereo not drawn) [I-70] | 40% | 80% | 60% | 50% | 80% | 80% | 20% | 50% | 30% | 80% | 98% | 70% | 70% | 50% | 0% | 40% | 0% | 0% |  |  | Growth controlling degree (%) Barnyardgrass (barnyardgrass [19]; active ingredient 125 g/ha): 80%; Growth controlling degree (%) Japanese bulrush (japanese bulrush; active ingredient 125 g/ha): 70%; Growth controlling degree (%) Japanese ribbon wapato (japanese ribbon wapato; active ingredient 125 g/ha): 40%; Growth controlling degree (%) Rice (rice (var. Nihonbare); active ingredient 125 g/ha): 10% |
| CC(C)C(c1cnccc1C(F)(F)F)N(C)S(=O)(=O)c1ccccc1 (stereo not drawn) [I-117, N-methyl-N-[2-methyl-1-(4-trifluoromethylpyridin-3-yl)propyl]phenylsulfonamide] | 80% | 80% | 40% | 50% | 70% | 80% | 20% | 30% | 60% | 100% | 95% | 100% | 60% | 70% | 50% | 40% | 20% | 10% | 95% | 98% | Growth controlling degree (%) Japanese ribbon wapato (japanese ribbon wapato; active ingredient 250 g/ha): 0%; Growth controlling degree (%) Rice (rice (var. Nihonbare); active ingredient 250 g/ha): 0% |
